From patent US9057727B2, “Screening methods using G-protein coupled receptors and related compositions” (The General Hospital Corporation, priority 2007, dated 2015)
Peptide text beside a SMILES is read from it.

Tests used:
[1] = biological target: hPTH1R (RG form of the human PTH receptor); test: RG memb: hPTH1R+dnGS *M-PTH(1-15)
human PTH receptor = biological target: T1, human PTH receptor (Homo sapiens, UniProt Q03431); test: cAMP in HRKRK-B7 cells EC50 (nM)
T1 construct: expressed in transfected cells
Description: Table printed on a drawing sheet, Figure 25
Head of the field: cAMP in HRKRK-B7 cells EC50 (nM)
First copying reader's note: The column head prints the cell line as HRKRK-B7 while the title prints HKRK-B7.

[2] = biological target: T2, hPTH1R (R0 form of the human PTH receptor) (Homo sapiens, UniProt Q03431); test: R0 memb: hPTH1R*PTH( 1-34)+GTPgS
T2 construct: expressed in transfected cells; host or cells: COS-7, transient (Fugene-6)

[3] = Calcemic action in normal rats (blood ionized calcium); assay type: in vivo; settings: normal and TPTX rats
Experimental: Binding to the rat PTHR was also measured in vitro.
Concentration of peptides in stock solution were adjusted by dilution with 25 mmol/L phosphate-citrate buffer/100 mmol/L NaCl/0.05% Tween 80 (pH. 5.0) (PC-buffer). All peptides were allowed to stand on ice immediately before administration.
Female SD-IGS rat at 8 weeks of age (Charles River Japan, Inc.) were measured for their body weight. Blood was collected by tail vein into heparinized capillary tubes and measured for baseline levels of blood ionized calcium and pH using Ca^++/pH analyzer (Model 634/Bayer Medical Ltd.) to give the corrected level of ionized calcium at pH 7.4 for each sample. Rats received intravenous administration of each peptides at a dose of 1 ml/kg. Peptides were administered to groups of 6 rats each respectively. At 1, 2, 4, or 6 hours after administration, blood was collected by tail vein to monitor the time course of corrected blood ionized calcium levels. The time course of changes in corrected ionized calcium levels, compared to vehicle, and are expressed as means+/−standard error.

human PTH1 receptor = biological target: T3, human PTH1 receptor (Homo sapiens, UniProt Q03431); test: cAMP signaling dose-response in HKRK-B7 cells; assay type: cell-based; settings: 15 min, 37° C., IBMX
T3 construct: expressed in transfected cells
T3 sequence (Q03431 27-593): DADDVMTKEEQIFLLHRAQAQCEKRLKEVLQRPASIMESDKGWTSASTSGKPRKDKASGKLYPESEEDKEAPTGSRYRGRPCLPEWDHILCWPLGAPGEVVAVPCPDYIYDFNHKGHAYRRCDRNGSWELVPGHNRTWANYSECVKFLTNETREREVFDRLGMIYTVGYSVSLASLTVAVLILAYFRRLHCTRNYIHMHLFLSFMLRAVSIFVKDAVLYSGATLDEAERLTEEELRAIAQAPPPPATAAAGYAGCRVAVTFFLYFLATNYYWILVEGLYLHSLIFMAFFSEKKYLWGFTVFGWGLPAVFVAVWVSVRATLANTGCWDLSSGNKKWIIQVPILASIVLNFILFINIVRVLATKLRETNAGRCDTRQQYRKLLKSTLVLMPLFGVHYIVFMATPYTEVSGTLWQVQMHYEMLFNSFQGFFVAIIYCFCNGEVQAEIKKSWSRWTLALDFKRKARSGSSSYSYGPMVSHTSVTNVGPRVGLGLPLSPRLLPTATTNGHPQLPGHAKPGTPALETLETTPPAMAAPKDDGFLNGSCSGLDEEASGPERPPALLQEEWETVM
Experimental: In the cAMP experiments of FIG. 14, HKRK-B7 were seeded in 96 well plates at 1×10^5 cells/well and incubated overnight. On the following day, the cells were washed once with […] of binding buffer (50 mM Tris-HCl, pH 7.7, 100 mM NaCl, 5 mM KCl, 2 mM CaCl2, 5% heat-inactivated horse serum, 0.5% heat-inactivated fetal bovine serum), followed by addition of 100 μl cAMP assay buffer (DMEM, 2 mM IBMX, 1 mg/ml bovine serum albumin, 35 mM Hepes-NaOH, pH 7.4) on ice. […] After removing the medium, the plates were placed on powdered dry ice to freeze the cells and then removed from dry ice. The cells were thawed with 50 μl of 50 mM HCl and frozen again on dry ice. The level of intracellular cAMP was measured with a commercially available cAMP EIA kit (Biotrack cAMP EIA system, GE Healthcare).
HKRK-B, which are LLC-PK1 cells over-expressing human PTH1 receptor at levels of 9.5×10^5 per cell were used in the cAMP signaling assay. The cells were cultured at 37° C. in a humidified atmosphere containing 5% CO2 in Dulbecco's modified Eagle's medium (DMEM), supplemented with 10% fetal bovine serum (Hyclone), 100 units/ml penicillin G, and 100 μg/ml streptomycin sulfate (Invitrogen Corp). […] All peptides were dissolved at 1 mM in 10 mM acetic acid, and stored at −80° C. The cAMP stimulation assay was performed as described above for HKRK-B7 cells. […] Cells were treated for 15 minutes at 37° C. with varying concentrations of ligands in the presence of IBMX.

[4] = biological target: T4, human PTHR, G protein-uncoupled conformation (R^0) (Homo sapiens, UniProt Q03431); test: Competition binding to R0 conformation of hPTHR (COS-7 membranes, GTPγS, 125I-PTH(1-34) tracer); settings: human PTH receptor on COS-7 cell membranes
T4 construct: expressed in transfected cells; host or cells: COS-7, transient (Fugene-6)
T4 sequence (Q03431 27-593): T3 sequence (Q03431 27-593)
In short: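 Bound versus free radioligand was separated by vacuum filtration after 90 min incubation of COS-7 hPTHR membranes (20-100 μg/mL) with tracer and competing peptides. Non-specific binding came from a saturating unlabeled analog.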

Row | IC50 [1] [nM] | EC50 (human PTH receptor) [nM] | IC50 [2] [nM] | cAMP in HKRK-B7 cells Max (human PTH1 receptor) [pm/well] | R0/RG ratio [4] | Compound | calcemic action compared with control peptides, in words [3]
1 | 0.22 | 0.89 | 16.8 | – | – | CC[C@H](C)[C@H](NC(=O)[C@H](CCC(=O)O)NC(=O)[C@H](C)NC(=O)[C@@H](NC(=O)[C@H](Cc1c[nH]cn1)NC(=O)[C@@H](NC(=O)[C@H](CCC(=O)O)NC(=O)[C@H](C)NC(=O)[C@@H](NC(=O)[C@H](CC(C)C)NC(=O)[C@H](Cc1c[nH]cn1)NC(=O)[C@H](Cc1c[nH]cn1)NC(=O)[C@H](CC(C)C)NC(=O)[C@H](Cc1ccccc1)NC(=O)[C@H](CCC(=O)O)NC(=O)[C@@H](NC(=O)[C@H](CCCNC(=N)N)NC(=O)[C@H](CCC(=O)O)NC(=O)[C@H](CCSC)NC(=O)[C@H](CO)NC(=O)[C@H](CC(N)=O)NC(=O)[C@H](CC(C)C)NC(=O)[C@H](Cc1c[nH]cn1)NC(=O)[C@H](CCCCN)NC(=O)CNC(=O)[C@H](CC(C)C)NC(=O)[C@H](CC(N)=O)NC(=O)[C@H](Cc1c[nH]cn1)NC(=O)[C@H](CCSC)NC(=O)[C@H](CC(C)C)NC(=O)[C@H](CCC(N)=O)NC(=O)[C@@H](NC(=O)[C@H](CCC(=O)O)NC(=O)[C@H](CO)NC(=O)[C@@H](NC(=O)[C@@H](N)CO)C(C)C)[C@@H](C)CC)C(C)C)[C@@H](C)CC)[C@@H](C)CC)[C@@H](C)O)C(=O)O [PTH(1-22)/PTHrP(23-36)] (H-SVSEIQLMHNLGKHLNSMERVEFLHHLIAEIHTAEI-OH) | weaker calcemic actions than did either PTH(1-34) or PTHrP(1-36) control peptides
2 | 0.31 | 1.07 | 7.9 | – | – | CC[C@H](C)[C@H](NC(=O)[C@H](CCC(=O)O)NC(=O)[C@H](C)NC(=O)[C@@H](NC(=O)[C@H](Cc1c[nH]cn1)NC(=O)[C@@H](NC(=O)[C@H](CCC(=O)O)NC(=O)[C@H](C)NC(=O)[C@@H](NC(=O)[C@H](CC(C)C)NC(=O)[C@H](CCCCN)NC(=O)[C@H](CCCNC(=N)N)NC(=O)[C@H](CC(C)C)NC(=O)[C@H](Cc1c[nH]c2ccccc12)NC(=O)[C@H](CCC(=O)O)NC(=O)[C@@H](NC(=O)[C@H](CCCNC(=N)N)NC(=O)[C@H](CCC(=O)O)NC(=O)[C@H](CCSC)NC(=O)[C@H](CO)NC(=O)[C@H](CC(N)=O)NC(=O)[C@H](CC(C)C)NC(=O)[C@H](Cc1c[nH]cn1)NC(=O)[C@H](CCCCN)NC(=O)CNC(=O)[C@H](CC(C)C)NC(=O)[C@H](CC(N)=O)NC(=O)[C@H](Cc1c[nH]cn1)NC(=O)[C@H](CCSC)NC(=O)[C@H](CC(C)C)NC(=O)[C@H](CCC(N)=O)NC(=O)[C@@H](NC(=O)[C@H](CCC(=O)O)NC(=O)[C@H](CO)NC(=O)[C@@H](NC(=O)[C@@H](N)CO)C(C)C)[C@@H](C)CC)C(C)C)[C@@H](C)CC)[C@@H](C)CC)[C@@H](C)O)C(=O)O [PTH(1-26)/PTHrP(27-36), hPTH(1-26)/PTHrP(27-36)] (H-SVSEIQLMHNLGKHLNSMERVEWLRKLIAEIHTAEI-OH) | weaker calcemic actions than did either PTH(1-34) or PTHrP(1-36) control peptides
3 | – | – | – | 63.8 | – | CC[C@H](C)[C@H](NC(=O)[C@H](CCC(=O)O)NC(=O)[C@H](C)NC(=O)[C@@H](NC(=O)[C@H](C)N)C(C)C)C(=O)N[C@@H](CCC(N)=O)C(=O)N[C@@H](CC(C)C)C(=O)N[C@@H](CCSC)C(=O)N[C@@H](Cc1c[nH]cn1)C(=O)N[C@@H](CCC(N)=O)C(=O)N[C@@H](CCCNC(=N)N)C(=O)NCC(=O)N[C@@H](CCCCN)C(=O)N[C@@H](Cc1c[nH]cn1)C(=O)N[C@@H](CC(C)C)C(=O)N[C@@H](CC(N)=O)C(=O)N[C@@H](CO)C(=O)N[C@@H](CCSC)C(=O)N[C@@H](CCC(=O)O)C(=O)N[C@@H](CCCNC(=N)N)C(=O)N[C@H](C(=O)N[C@@H](CCC(=O)O)C(=O)N[C@@H](C)C(=O)N[C@@H](CC(C)C)C(=O)N[C@@H](CCCNC(=N)N)C(=O)N[C@@H](CCCCN)C(=O)N[C@@H](CCCCN)C(=O)N[C@@H](CC(C)C)C(=O)N[C@@H](CCC(N)=O)C(=O)N[C@@H](CC(=O)O)C(=O)N[C@H](C(=O)N[C@@H](Cc1c[nH]cn1)C(=O)N[C@@H](CC(N)=O)C(=O)N[C@@H](Cc1ccccc1)C(=O)O)C(C)C)C(C)C [[A1,3,23,Q10,R11]-PTH(1-34)OH, [A^1,A^3,A^23,Q^10,R^11]-PTH(1-34)OH] | –
4 | – | – | – | 66.6 | 4291 | CC[C@H](C)[C@H](NC(=O)[C@H](CCC(=O)O)NC(=O)[C@H](C)NC(=O)[C@@H](NC(=O)[C@H](C)N)C(C)C)C(=O)N[C@@H](CCC(N)=O)C(=O)N[C@@H](CC(C)C)C(=O)N[C@@H](CCSC)C(=O)N[C@@H](Cc1c[nH]cn1)C(=O)N[C@@H](CC(N)=O)C(=O)N[C@@H](CC(C)C)C(=O)NCC(=O)N[C@@H](CCCCN)C(=O)N[C@@H](Cc1c[nH]cn1)C(=O)N[C@@H](CC(C)C)C(=O)N[C@@H](CC(N)=O)C(=O)N[C@@H](CO)C(=O)N[C@@H](CCSC)C(=O)N[C@@H](CCC(=O)O)C(=O)N[C@@H](CCCNC(=N)N)C(=O)N[C@H](C(=O)N[C@@H](CCC(=O)O)C(=O)N[C@@H](C)C(=O)N[C@@H](CC(C)C)C(=O)N[C@@H](CCCNC(=N)N)C(=O)N[C@@H](CCCCN)C(=O)N[C@@H](CCCCN)C(=O)N[C@@H](CC(C)C)C(=O)N[C@@H](CCC(N)=O)C(=O)N[C@@H](CC(=O)O)C(=O)N[C@H](C(=O)N[C@@H](Cc1c[nH]cn1)C(=O)N[C@@H](CC(N)=O)C(=O)N[C@@H](Cc1ccccc1)C(=O)O)C(C)C)C(C)C [[A1,3,23]-PTH(1-34)OH, [A^1,A^3,A^23]-PTH(1-34)OH] (H-AVAEIQLMHNLGKHLNSMERVEALRKKLQDVHNF-OH; N-terminus assumed) | –
